Experimental findings from patent US8507504B2, “Process for producing bicycloaniline derivatives” (Merck Sharp & Dohme Corp., priority 2008, dated 2013) are described below.

The experiment relates to Human colon cancer cells WiDr. Put plainly: Tumor growth inhibitory effect, WiDr xenograft in nude rats, combined with gemcitabine. The following applies: summary of Table 1. The format is in vivo, F344/N Jcl-rnu nude rats. Here is the method:
Pharmacological Test 2 (Tumor Growth Inhibitory Effect)
Human colon cancer cells WiDr (obtained from ATCC) were implanted into the subcutaneous area of the back of F344/N Jcl-rnu nude rats. 12 days after the implantation, 5 mg/kg of gemcitabine (Gemzar, from Eli Lily) was intravenously administered to them; and after 24 hours, a test compound suspended in a solvent (0.5% methyl cellulose) was orally administered thereto. This was repeated once a week for 3 weeks. The tumor volume (0.5×major diameter×(minor diameter)^2) was measured on days 0, 3, 6, 10, 13, 17, 20, 24 and 27 (the first gemcitabine administration is on day 0). The relative tumor volume was calculated, based on the tumor volume on day 0, as 1. The tumor growth rate (% T/C) was obtained according to the formulae mentioned below.
In case where the tumor volume change from day 0 in the test compound administration group is more than 0 (>0): % T/C=(tumor volume change in the test compound group on days 3, 6, 10, 13, 17, 20, 24 and 27/tumor volume change in the control group on days 3, 6, 10, 13, 17, 20, 24 and 27)×100.
In case where the tumor volume change from day 0 in the test compound administration group is less than 0 (<0): % T/C=(tumor volume change in the test compound group on days 3, 6, 10, 13, 17, 20, 24 and 27/tumor volume […] in the test compound group on day 0)×100. […]

As to `Nc1ccn([C@@H]2O[C@H](CO)[C@@H](O)C2(F)F)c(=O)n1` [Gemcitabine, gemcitabine], the “tumor growth rate (result in words)” value is “reduced the tumor growth rate”.
